We go through ten molecules from publication PMC7601674, “CoQ10 Deficient Endothelial Cell Culture Model for the Investigation of CoQ10 Blood–Brain Barrier Transport” (Journal of Clinical Medicine, 2020).

Data set [1] deals with bEnd.3 cells (mouse BBB cell line) monolayer. Kind of data set: CoQ10 transport assay across bEnd.3 monolayer on Transwell filters (control or pABA treated). The conditions noted are these: for A to B CoQ10 transport, % of control / Apical to Basal CoQ10 transport, % of control: BLT-1 10 µM, FPS-ZM1 1 µM; for A to B CoQ10 transport, % of control: verapamil 0.1 mM, added 2 h before, 60 min; for Apical to Basal CoQ10 transport, % of control: RAP 0.5 µM; for Effect on Basal to Apical transport of CoQ10: antioxidant 50 µM co-administered with CoQ10 10 µM; for Effect on B to A transport of CoQ10: pABA treated bEnd.3, antioxidant 50 µM. The method, then:
(§1) Unless stated, CoQ10 was pre-treated by incubation in serum at a concentration of 20 µM for 45 min at 37 °C, and added to assay buffer on either the Apical (blood facing) or Basal (brain facing) side of the cells on Transwell filters. The final concentration of CoQ10 used in the assays was 10 µM in serum (50% v/v). Cells were then incubated for 60 min on an orbital shaker (100 rpm) at 37 °C. Samples of the Apical (A) and Basal (B) media were then taken for analysis to calculate A to B (blood-to-brain) or B to A (brain-to-blood) Papp in cm/s, as previously described by Patabendige et al.. CoQ10 concentrations were determined using the LC-MS/MS method described above (Section 2.2).
(§2) Inhibitors of transport were added to both Apical and Basal sides of the cells for 2 h prior to assay. Antioxidants were pre-incubated with CoQ10 in serum for 45 min prior to assay, and were present in the assay buffer. Compounds used were; SR-B1 inhibitor, blocker of lipid transport-1 (BLT-1; 10 µmol/L)
(§3) As previously described, para-aminobenzoic acid (pABA) was used as a pharmacological reagent to induce CoQ10 deficiency. The mechanism of action is via competitive inhibition of polyprenyl-4-hydroxybenzoate transferase (Coq2p), a key enzyme in the later stages of the CoQ10 biosynthetic pathway. Following the method of Duberley et al., 1 mmol/L pABA was added to culture medium for 5 days prior to assay.

A further data set concerns bEnd.3 BBB model. Particulars: cited from earlier work.
On the set-up of data set [2]: method as in PMID 11259830. The conditions noted are these: cited from earlier work.
Data set [3] deals with bEnd.3 cellular CoQ10 content. The data set is described as follows: Cellular CoQ10 depletion by pABA, bEnd.3. The data set is classed as cell-based, mouse. The method, then:
(§4) Final CoQ10 concentrations (nmol/L) were calculated as a ratio of CoQ10/CoQ10–[^2H9] peak areas, and quantified against the corresponding calibration curve, with appropriate correction for dilution. For intracellular determination of CoQ10 the concentration was divided by total protein (mg/mL) and expressed as pmol/mg (nmol/g) of protein.

Data set [4] relates to claudin-5 tight junction protein in PBEC. The data set is described as follows: Confocal microscopy of claudin-5. It is filed as cell-based, porcine. The conditions noted are these: PBEC after 5 days pABA (1 mM). Here is the method: Cells for confocal microscopy were fixed in paraformaldehyde (4% w/v in PBS) for 45 min, washed with HBSS and stored in glycerol (70% v/v in PBS) until use. Cells were permeabilised with Triton-x 100 (0.1% v/v in PBS), incubated with anti-Claudin 5 Monoclonal Antibody (4C3C2) Alexa Fluor 488 (1 in 80 dilution in DAKO, overnight, 4 °C, Thermofisher) to visualise tight junctions. Samples were then mounted in Vectashield containing DAPI for nuclei staining. The Nikon A1 inverted confocal microscope was used with spectral detector and Eclipse Ti-E microscope at ×40 magnification to generate digital images, analysed using Fiji (ImageJ).

For another data set, the system named is MRC complex II-III. Kind of data set: Mitochondrial respiratory chain enzyme activity, complex II-III. The data set is classed as cell-based, mouse. Here is the method:
(§5) Activities of the mitochondrial respiratory chain enzymes; complex I, complex II-III and complex IV together with the mitochondrial marker enzyme, and citrate synthase (EC 2.3.3.1) were determined spectrophotometrically on a Uvikon XL spectrophotometer with LabPower software (Version 2.06S, Northstar Scientific Ltd., Potton, UK) according to the method previously described by Hargreaves et al.. Results were expressed as a ratio to citrate synthase activity, a validated biomarker of mitochondrial content, and were normalised against mg protein. Protein quantification was determined according to the Lowry method using BSA as a standard.

Data set [5] relates to PBEC cellular CoQ10 content. The data set is described as follows: Cellular CoQ10 depletion by pABA, PBEC. The data set is classed as cell-based, porcine. The method, then: as §4
The test system of a further data set is bEND.3 cells. Kind of data set: MTT cell viability assay. It is filed as cell-based, mouse. The conditions noted are these: pABA up to 1 mM, 5 days. Here is the method: Cell viability was determined using the MTT assay described by Mosmann. Cells were passaged onto 96-well plates, grown to confluence and washed with HBSS prior to the addition of 3-[4,5-dimethylthiazol-2-yl]-2,5-diphenyl tetrazolium bromide (MTT; 1 mg/mL) in DMEM (without phenol red). Cells were then incubated for 4 h at 37 °C, 5% CO2, after which the medium was removed, and the remaining formazan crystals dissolved in propan-2-ol (100 μL/well). The resulting purple solution was spectrophotometrically measured at 540 nm using a Multiskan Ascent plate reader with Ascent software (MTX LabSystems, USA).
A general note: Tetrazolium assays rely on reduction of a dye to a coloured formazan, in cell work by metabolically active cells.

The test system of the next data set is MRC complex IV. Kind of data set: Mitochondrial respiratory chain enzyme activity, complex IV. The data set is classed as cell-based, mouse. Particulars: bEND.3, 1 mM pABA 5 days. Here is the method: as §5
The subject of data set [6] is PBEC tight junction integrity. Kind of data set: Transendothelial electrical resistance (TEER) of PBEC monolayer. The conditions noted are these: PBEC after 5 days pABA (1 mM); control 856 ± 71; n = 6. The data set is classed as cell-based, porcine. The method, then: (§6) Primary porcine brain endothelial cells (PBEC) were isolated and cultured as previously published. Briefly, cells were seeded at 10 × 10^4 cells/cm^2 on collagen and fibronectin-coated polycarbonate Transwell filters (Corning 0.4 µm pore size) in 12-well plates, and grown in low glucose DMEM (Sigma D5546) supplemented with bovine plasma-derived serum (10% v/v; BPDS, First Link UK), glutamine (2 mM), heparin (125 µg/mL), penicillin (100 U/mL) and streptomycin (100 µg/mL), at 37 °C in a 5% CO2 incubator. PBECs were grown in non-contact co-culture above primary rat astrocytes until confluent, then supplemented with hydrocortisone (550 nM), 8-4-chlorophenylthio-cAMP (250 µM) and RO-20-1724 (17.5 µM) in serum-free medium for a further 3 days. Before assays of CoQ10 transport, PBECs were separated from astrocytes by moving transwell filters to fresh culture plates.
as §3

Another data set has as its system MRC complex I. The data set is described as follows: Mitochondrial respiratory chain enzyme activity, complex I. It is filed as cell-based, mouse. The method, then: as §5
Data set [7] concerns citrate synthase (EC 2.3.3.1). The data set is described as follows: Citrate synthase activity. The data set is classed as cell-based, mouse. The conditions noted are these: bEND.3, 1 mM pABA 5 days. Here is the method:
as §5

The subject of data set [8] is primary porcine brain endothelial cells (PBEC) monolayer. Kind of data set: CoQ10 transport assay across PBEC monolayer on Transwell filters. Particulars: PBEC; RAP 0.5 µM applied to the basal (brain side). Here is the method:
as §6, §1, §2

Where [9] appears, read: pABA treated (1 mM; 5 days) bEnd.3.
Setting [10] is: bEND.3, 1 mM pABA 5 days, ratio to citrate synthase.

`CCCCCCC1CCCC1=NNC(N)=S` (stereo not drawn) [BLT-1, blocker of lipid transport-1]: in [1] (control bEnd.3), the “Effect on “net” transport of CoQ10” value is ““net” −ve transport” and the “A to B CoQ10 transport, % of control” value is reported as 44 % of control. Also, in data set [1] (setting [9]), the “Effect on “net” transport of CoQ10” value is reported as “no significant effect” and the “Apical to Basal CoQ10 transport, % of control” value (“Apical … % of control” below) is listed as “no effect”.
With `N#CC(C#N)=NNc1ccc(OC(F)(F)F)cc1` [FCCP], in the data set with bEnd.3 BBB model, the “Permeability to FITC-dextran” value is “doubled”.
For `O=C(c1ccc(Cl)cc1)N(Cc1ccccc1)C1CCCCC1` [FPS-ZM1], in data set [1] (control bEnd.3), the “Effect on “net” transport of CoQ10” value is on record as ““net” −ve transport” and the “A to B CoQ10 transport, % of control” value is 50 % of control. In addition, in data set [1] (setting [9]), the “Effect on “net” transport of CoQ10” value is listed as “abolished “net” A to B transport” and the “Apical … % of control” value is recorded as 45 % of control.
As for `Cc1c(C)c2c(c(C)c1O)CCC(C)(C(=O)O)O2` (stereo not drawn) [Trolox], the “Effect on Basal to Apical transport of CoQ10” value in [1] (control bEnd.3) is given as “increased Basal to Apical transport of CoQ10”. Moreover, the “Effect on B to A transport of CoQ10” value in data set [1] is reported as “enhanced B to A transport”.
On to `COC1=C(OC)C(=O)C(CCCCCCCCCCO)=C(C)C1=O` [idebenone], for which, in data set [1], the Direction of transport entry is given as “transport toward the brain side (A to B) greater than efflux to blood (B to A)”; the “Permeability (Papp) compared to CoQ10, A to B direction” value was determined as 280 ×; the “Permeability (Papp) compared to CoQ10, B to A direction” value is reported as 150 ×. The LogP entry in data set [2] is given as “less than 5”.
As for `CC[C@H]1/C=C/C=C/C[C@@H](C)[C@H](O)[C@@](C)(O)C(=O)[C@@H](C)[C@H](O)[C@@H](C)C(=O)[C@@H](C)[C@H](O)[C@@H](C)/C=C/C(=O)O[C@@H]2[C@H](C)[C@H](CC1)O[C@]1(CC[C@H](C)[C@H](C[C@@H](C)O)O1)[C@H]2C` [oligomycin], the “Permeability to FITC-dextran” value in the data set with bEnd.3 BBB model is given as “doubled”.
In the case of `Nc1ccc(C(=O)O)cc1` [pABA, para-aminobenzoic acid], the “Depletion of cellular CoQ10 relative to controls” value in [3] (bEnd.3, 1 mM pABA 5 days, n = 4) worked out at 43%; in data set [5] (1 mM pABA 5 days, n = 4), 36%. Also, the “Cellular CoQ10, % of control” value in data set [3] (bEnd.3, pABA 1 mmol/L 5 days) is given as 57 % of control; in [5] (pABA 1 mmol/L 5 days), 36 % of control. In addition, the Claudin-5 localisation entry in data set [4] is “re-location of claudin-5 tight junction protein away from the cell membrane”. Besides, the “Decrease in MRC complex II-III activity” value with MRC complex II-III (setting [10]) worked out at 72%. In addition, the “MRC complexes II-III activity, % of control” value in the data set on MRC complex II-III (bEnd.3, pABA 1 mmol/L 5 days) is listed as 28 % of control. Besides, the Cell viability result in the data set on bEND.3 cells was “no change in cell viability”. The “MRC complex IV activity, % of control” value in the data set on MRC complex IV was 80 % of control. Also, in [6], the “Transendothelial electrical resistance (TEER)” value is 49 ± 9 Ω · cm^2. Besides, the “Decrease in MRC complex I activity” value in the data set with MRC complex I (setting [10]) turned out to be 68%. The “MRC complex I activity, % of control” value in the data set on MRC complex I (bEnd.3, pABA 1 mmol/L 5 days) was 32 % of control. In data set [7], the Citrate synthase activity entry is reported as “no significant change”.
Turning to `C=C(C)[C@H]1Cc2c(ccc3c2O[C@@H]2COc4cc(OC)c(OC)cc4[C@@H]2C3=O)O1` [rotenone], the “Permeability to FITC-dextran” value in the data set on bEnd.3 BBB model is given as “doubled”.
On to `Cc1c(C)c2c(c(C)c1O)CC[C@@](C)(CCC[C@H](C)CCC[C@H](C)CCCC(C)C)O2` [α-tocopherol], for which, in data set [1] (control bEnd.3), the “Effect on Basal to Apical transport of CoQ10” value is “increased Basal to Apical transport of CoQ10”. Also, in [1], the “Effect on B to A transport of CoQ10” value is recorded as “enhanced B to A transport”.

B1: receptor-associated protein (protein, UniProt P30533 35-357, looked up)
Alpha-2-macroglobulin …: YSREKNQPKPSPKRESGEEFRMEKLNQLWEKAQRLHLPPVRLAELHADLKIQERDELAWKKLKLDGLDEDGEKEARLIRNLNVILAKYGLDGKKDARQVTSNSLSGTQEDGLDDPRLEKLWHKAKTSGKFSGEELDKLWREFLHHKEKVHEYNVLLETLSRTEEIHENVISPSDLSDIKGSVLHSRHTELKEKLRSINQGLDRLRRVSHQGYSTEAEFEEPRVIDLWDLAQSANLTDKELEAFREELKHFEAKIEKHNHYQKQLEIAHEKLRHAESVGDGERVSRSREKHALLEGRTKELGYTVKKHLQDLSGRISRARHNEL
Consider B1, for which the “Effect on “net” transport of CoQ10” value in data set [1] (control bEnd.3) was ““net” +ve transport toward the brain side (A to B)”. Besides, in [1] (setting [9]), the “Effect on “net” transport of CoQ10” value was “enhanced “net” +ve transport toward the brain side” and the “Apical … % of control” value is on record as 164 % of control. The “Effect on B-to-A CoQ10 efflux” value in data set [8] is “inhibited the B-to-A efflux”.
